The subject of data set [1] is Rattus norvegicus. To be noted: oral; for NEL / LEL: Crl:CD(SD) BR.
Data set [2] concerns Mus musculus. To be noted: chronic; duration: 50 weeks; oral; drinking water; F; Swiss; body weight.
Setting [3] is: subchronic, duration: 13 weeks, diet, F, Blood: Hematocrit (HCT) + Blood: Mean Corpuscular Volume (MCV) + Brain: Brain Weight, Absolute + Kidney: Urea Nitrogen + Liver: Cholesterol….
Setting [4] is: subchronic, duration: 13 weeks, diet, F, Blood: Red Blood Cell (RBC) + Kidney: Kidney Weight, Relative + Liver: Hepatocellular Hypertrophy, Centrilobular + Liver: Liver Weight, ….
[5] abbreviates: subchronic, duration: 13 weeks, diet, F, Sprague-Dawley, Endocrine: Adrenal: Adrenal Gland Weight, Absolute + Endocrine: Adrenal: Adrenal Gland Weight, Relative to Brain + Hepatic: Liver: Liver ….
[6] abbreviates: subchronic, duration: 13 weeks, diet, F, Sprague-Dawley, Hepatic: Liver: Total Bilirubin (TBILI) + Immune: Blood: Monocytes %.
Where [7] appears, read: subchronic, duration: 13 weeks, diet, M, Blood: Calcium (CA), Blood + Blood: Globulin (G), Blood + Brain: Brain Weight, Relative + Kidney: Kidney Weight, Relative + Liver: ….
The mark [8] stands for this setting: subchronic, duration: 13 weeks, diet, M, Blood: Glucose (GLU), Blood + Blood: Hematocrit (HCT) + Kidney: Kidney Weight, Absolute + Kidney: Kidney Weight, Relative to Brain + Kidney….
The mark [9] stands for this setting: subchronic, duration: 13 weeks, diet, M, Sprague-Dawley, Cardiovascular: Heart: Heart, Degeneration/Necrosis + Endocrine: Adrenal: Adrenal Gland Weight, Absolute + Endocrine: Thyroid/Parathyroid: ….
The mark [10] stands for this setting: subchronic, duration: 13 weeks, diet, M, Sprague-Dawley, Endocrine: Adrenal: Adrenal Gland Weight, Relative + Endocrine: Adrenal: Adrenal Gland Weight, Relative to Brain + Endocrine: Adrenal: ….
The mark [11] stands for this setting: subchronic, duration: 13 weeks, diet, M, Sprague-Dawley, Immune: Blood: Basophils.

The record followed here is EPA's ToxValDB 9.5.

Molecules are shown by their SMILES. Several values for one entry are separate records, joined by “and”; a condition that tells them apart may be missing. Identical values can stand only once.

`CN(CCO)S(=O)(=O)C(F)(F)C(F)(F)C(F)(F)C(F)(F)C(F)(F)C(F)(F)C(F)(F)C(F)(F)F` [N-Methyl-N-(2-hydroxyethyl)perfluorooctanesulfonamide]: the NEL in data set [1] (chronic, duration: 14 weeks, diet, M/F, Eye: Ophthalmology, Unspecified + Whole Body: Clinical Observations) is 7.8 mg/kg-day and 7.27 mg/kg-day; in data set [1] (subchronic, duration: 13 weeks, diet, F, Adrenal: Adrenal Cortex Histopathology + Adrenal: Adrenal Gland Weight, Absolute + Adrenal: Adrenal Gland Weight, Relative + Adrenal: …), 9.6 mg/kg-day and 7.7 mg/kg-day; in data set [1] (setting [3]) it was 2.88 mg/kg-day and 2.59 mg/kg-day; in data set [1] (setting [4]) it was 0.288 mg/kg-day and 0.24 mg/kg-day; in data set [1] (subchronic, duration: 13 weeks, diet, M, Adrenal: Adrenal Cortex Histopathology + Adrenal: Adrenal Gland Weight, Absolute + Adrenal: Adrenal Gland Weight, Relative + Adrenal: …) it was 6.84 mg/kg-day and 9.6 mg/kg-day; in data set [1] (setting [7]), 0.203 mg/kg-day and 0.288 mg/kg-day. In addition, in data set [1] (setting [8]), the NEL is 2.04 mg/kg-day and 2.88 mg/kg-day. Besides, the LEL in data set [1] (setting [3]) is 9.6 mg/kg-day and 7.7 mg/kg-day; in data set [1] (setting [4]) it was 2.88 mg/kg-day and 2.59 mg/kg-day; in data set [1] (subchronic, duration: 13 weeks, diet, F, Brain: Brain Weight, Relative + Whole Body: Body Weight Change) it was 0.288 mg/kg-day and 0.24 mg/kg-day; in data set [1] (setting [7]), 2.04 mg/kg-day and 2.88 mg/kg-day; in data set [1] (setting [8]), 6.84 mg/kg-day and 9.6 mg/kg-day; in data set [1] (subchronic, duration: 13 weeks, diet, M, Whole Body: Body Weight Change) it was 0.203 mg/kg-day and 0.288 mg/kg-day. Besides, the NOAEL – broadly, the highest tested level that showed no adverse finding – in data set [1] (subchronic, duration: 13 weeks, diet, F, Sprague-Dawley, Cardiovascular: Aorta: Aorta Histopathology + Cardiovascular: Heart: Heart, Degeneration/Necrosis + Endocrine: Adrenal: Adrenal Cortex …) came out at 0.203 mg/kg-day; in data set [1] (setting [5]), 2.04 mg/kg-day; in data set [1] (subchronic, duration: 13 weeks, diet, F, Sprague-Dawley, Endocrine: Adrenal: Adrenal Medulla Histopathology + Endocrine: Thyroid/Parathyroid: Thyroid/Parathyroid Gland Weight, Relative to Brain + …) it was 6.84 mg/kg-day; in data set [1] (setting [6]), 1.92 mg/kg-day; in data set [1] (subchronic, duration: 13 weeks, diet, M, Sprague-Dawley, Cardiovascular: Aorta: Aorta Histopathology + Endocrine: Adrenal: Adrenal Cortex Histopathology + Endocrine: Pituitary: Pituitary Gland …), 6.84 mg/kg-day; in data set [1] (setting [9]) it was 2.04 mg/kg-day. Moreover, the no observed adverse effect level (NOAEL) was determined as 0.203 mg/kg-day in data set [1] (setting [10]) and 1.92 mg/kg-day in data set [1] (setting [11]). Further, the LOAEL – broadly, the lowest dose or exposure tested at which an adverse effect was seen – in data set [1] (setting [5]) came out at 6.84 mg/kg-day; in data set [1] (subchronic, duration: 13 weeks, diet, F, Sprague-Dawley, General Toxicity: Whole Body: Body Weight Change + General Toxicity: Whole Body: Body Weight, Absolute + Hematologic: Blood: Inorganic …), 0.203 mg/kg-day; in data set [1] (setting [6]) it was 19.2 mg/kg-day; in data set [1] (subchronic, duration: 13 weeks, diet, M, Sprague-Dawley, Cardiovascular: Aorta: Aorta Histopathology + Cardiovascular: Heart: Heart, Degeneration/Necrosis + Endocrine: Adrenal: Adrenal Cortex …), 0.203 mg/kg-day; in data set [1] (setting [9]), 6.84 mg/kg-day; in data set [1] (setting [10]) it was 2.04 mg/kg-day. Besides, the LOAEL in data set [1] (subchronic, duration: 13 weeks, diet, M, Sprague-Dawley, Hematologic: Blood: Hematocrit (HCT) + Hematologic: Blood: Mean Corpuscular Hemoglobin Concentration (MCHC) + Hepatic: Liver: Aspartate …) was determined as 0.203 mg/kg-day; in data set [1] (setting [11]), 19.2 mg/kg-day.
Take `O=[N+]([O-])c1ccc(Oc2ccc(Cl)cc2Cl)cc1` [Nitrofen]: the NOEL in data set [1] (chronic, diet, M, Wistar, heart: Heart weight + spleen: Spleen weight) came to 116 mg/kg-day; in data set [1] (chronic, gavage, F, Wistar, heart: Heart weight + kidney: Kidney weight + liver: Liver weight), 127 mg/kg-day; in data set [1] (subchronic, diet, F, Wistar, spleen: Spleen weight) it was 1280 mg/kg-day. Further, the LOEL in data set [1] (chronic, diet, M, Wistar, kidney: Kidney weight + liver: Liver weight + testes: Testes weight) was 116 mg/kg-day; in data set [1] (chronic, gavage, F, Wistar, spleen: Spleen weight) it was 127 mg/kg-day; in data set [1] (subchronic, diet, F, Wistar, heart: Heart weight + kidney: Kidney weight), 1280 mg/kg-day; in data set [1] (subchronic, diet, F, Wistar, liver: Liver weight) it was 10 mg/kg-day; in data set [1] (subchronic, diet, M, Sprague-Dawley, Albumin + Cholesterol + Globulin + Glucose + Terminal body weight + Total protein), 186 mg/kg-day; in data set [1] (subchronic, diet, M, Sprague-Dawley, liver: Relative liver weight + Relative kidney weight + testes: Relative Testes weight), 37 mg/kg-day. Moreover, the LOEL in data set [1] (subchronic, diet, M, Wistar, heart: Heart weight + spleen: Spleen weight) turned out to be 1150 mg/kg-day; in data set [1] (subchronic, diet, M, Wistar, kidney: Kidney Weight + testes: Testes weight), 230 mg/kg-day; in data set [1] (subchronic, diet, M, Wistar, liver: Liver weight) it was 46 mg/kg-day.
In data set [2], `O=[N+]([O-])c1ccc(O)c([N+](=O)[O-])c1` [2,4-Dinitrophenol] came in with an LOAEL of 0.07 mg/kg-day.
